According to patent US20260137697A1, “THIAZOLO[5,4-D]PYRIMIDINE COMPOUNDS, COMPOSITIONS COMPRISING THEM AND USES THEREOF” (University de Montreal, priority 2022, published 2026):

Biological target: T1, ARAF (Homo sapiens, UniProt P10398)
T1 construct: ARAF kinase reactions were rigorously the same with the exception that kinase concentration was raised to 3.75 nM (cat. No. 1768-0000-1; Reaction Biology)
T1 sequence (P10398 303-606 limits assumed): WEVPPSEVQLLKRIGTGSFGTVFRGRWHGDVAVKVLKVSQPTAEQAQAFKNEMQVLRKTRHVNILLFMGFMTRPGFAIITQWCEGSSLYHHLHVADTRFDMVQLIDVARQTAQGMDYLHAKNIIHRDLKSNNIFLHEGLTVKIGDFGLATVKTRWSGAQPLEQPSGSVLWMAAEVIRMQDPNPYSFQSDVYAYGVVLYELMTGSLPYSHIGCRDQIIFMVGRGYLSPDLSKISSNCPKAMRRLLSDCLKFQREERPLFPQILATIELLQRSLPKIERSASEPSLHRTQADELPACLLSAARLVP
Assay: ARAF kinase activity assay (AlphaLISA p-MEK 1/2)
Type: biochemical
Settings: Table A; 10 μM ATP, kinase-dead MEK1 substrate
Experimental: Compound preparation: solid samples of each substance in 1dram vials were suspended in DMSO (Fisher Scientific) at a stock concentration of 20 mM. Stocks were kept at −20° C. and protected from light. If solubility of the compound at 20 mM appeared to be an issue, the initial concentration of the DMSO stock was changed to 10 mM or 5 mM.
In vitro enzymatic reactions were used for evaluating compounds intrinsic activity against BRAF, CRAF and ARAF. For BRAF and CRAF, 0.375 nM of purified GST-tagged kinases (cat. No. B4062-10UG and cat. No. R1656-10UG respectively from Millipore Sigma) were incubated with 75 nM of kinase-dead MEK1 substrate (cat. No. 40075; BPS Bioscience) in the presence of 10 μM of Ultrapure ATP (cat. No. V9102; Promega; part V915A) with and without the test compound in a buffer containing 50 mM HEPES pH 7.5, 10 mM MgCl2, 1 mM EDTA, 0.01% Brij-35 and 2 mM DTT. Separate reactions were performed with the MEK1 substrate and ATP as a blank control. ARAF kinase reactions were rigorously the same with the exception that kinase concentration was raised to 3.75 nM (cat. No. 1768-0000-1; Reaction Biology).
For compound treatment, 5 μL/well of test substance solution are placed in a 384-well proxyplate (Perkin Elmer) and mixed with 2× concentrated kinase reactions. The dilution series is selected so that nine concentrations cover a range from 100 nM to 0.01 nM. […] The final concentration of DMSO in the assay is set at 0.05%.
ARAF kinase reactions were carried out for a total of 2 hours at 30° C. and then stopped by addition of EDTA at a final concentration of 40 mM. Reactions were then detected using the AlphaLISA® SureFire® Ultra™ p-MEK 1/2 (Ser218/222) (PerkinElmer) kit. Reactions were performed with 5 μL of kinase reaction according to the manufacturer's specifications in 384-well proxyplates (Perkin Elmer) followed by overnight incubation of the AlphaLISA® reactions at room temperature in a humidified chamber. After completion of the detection reactions, the signals were recorded on a Synergy Neo2 plate reader (Biotek) equipped with AlphaLISA® filters. The effect of each compound dilution on the pMEK signal generated by ARAF reactions was expressed in % inhibition and calculated as follows. An internal 100% inhibition control (average of luminescence in kinase reactions comprising kinase dead MEK1 substrate alone) was included in each plate to measure of pMEK background and was subtracted from each data point. The average of DMSO (vehicle) controls (set as 0% inhibition) was also established and used to calculate % inhibition:
IC50 values were obtained by plotting the kinase inhibition values and fitting the dose-activity curves using a log(agonist) versus response—variable slope (four parameters) function using either GraphPadPrism (V7.0) or Dotmatics Screening Ultra platform. Standards included in the ARAF kinase assay were Belvarafenib (MedChem Express cat. No. HY-109080; CAS No. 1446113-23-0), LXH254 (MedChem Express cat. No. HY-112089; CAS No. 1800398-38-2) and BGB283 (cat. No. HY-18957; CAS No. 1446090-79-4).

Row | IC50 | Structure (SMILES)
1 | > 10 nM | O=C1CCc2c(Oc3ccc4c(c3)[C@@H]3[C@H](O4)[C@H]3c3nc4ccc(C(F)(F)F)cc4[nH]3)ccnc2N1 [BGB283]
2 | > 10 nM | Cc1ccc(NC(=O)c2ccnc(C(F)(F)F)c2)cc1-c1cc(OCCO)nc(N2CCOCC2)c1 [LXH254]
